According to patent publication US20240124556A1, “KERATIN BD-3, PREPARATION METHOD THEREFOR AND PHARMACEUTICAL COMPOSITION AND USE THEREOF” (INSTITUTE OF MATERIA MEDICA, CHINESE ACADEMY OF MEDICAL …, priority 2019, published 2024):
Structures can show the parent of a compound that is named as a salt. Marks after values point to notes of the source that are not given here.

Legend:
[1] = test system: cough induced by ammonia water in mice; experiment: Antitussive test, cough induced by ammonia water in mice; type: in vivo, ICR mice
Description: • Animals: male ICR mice; • Drugs and reagents: dextromethorphan hydrobromide, ammonia water, 0.2% CMC-Na, protein BD-3; • Apparatus: Compressed nebulizer (403T type), balance (XS105DU type). • Experiment grouping: • Solvent control group; • Dextromethorphan 15 mg/kg group; • Protein BD-3, 20 mg/kg group, 50 mg/kg group.
Dextromethorphan and different doses of protein BD-3 (administration volume 10 ml/kg) were given orally in groups, and the solvent control group was given the same volume of distilled water. One hour later, mice were put into a sealed box and atomized 10% ammonia water for 10 seconds, and then observed and recorded the incubation period of cough in mice and the number of coughs in 2 minutes.
Record the time point of oral administration, the time point of atomization experiment, the incubation period of mice cough and the number of coughs within 2 minutes, respectively. The incubation period of cough refers to the number of seconds from the start of the atomization of ammonia to the occurrence of cough. The performance of coughing in mice is based on contraction of their abdominal muscles (breast contraction) and opening their mouths at the same time. Calculate the mean and standard error of each group of data, and use TTEST to compare the model group with other groups, and P<0.05 is considered as a significant difference.

[2] = test system: PLO-induced epilepsy in mice; experiment: Pilocarpine (PLO) induced convulsive epilepsy in mice; type: in vivo, ICR mice; conditions: Diazepam 2 mg/kg
Description: • Animals: male ICR mice; • Drugs: Pilocarpine HCl (PLO, pilocarpine, pilocarpine hydrochloride), Diazepam (diazepam tablets), protein BD-3. • Experiment grouping: • Model group: • Diazepam 2 mg/kg group; • Protein BD-3, 50 mg/kg group, 200 mg/kg group.
The drug was administered once in the afternoon the day before modeling, PLO-225 mg/kg (modeling agent) was injected intraperitoneally 1 hour after the test drug was administered intragastrically on the day of modeling. And positive drug can be administered once 20 minutes before modeling. Observe for 30 minutes after PLO injection.
Observation indicators: (1)Seizure situation: the time of seizures from Grade II to Grade IV; (2)the time to death.
(§1) Seizure grade: Refer to Racine grading standard: Grade 0: No response; Grade I: manifested as twitching of facial muscles or the corners of the mouth; Grade II: can nod; Grade III: twitching of one limb; Grade IV: rigidity or body twitching; Grade V: generalized epilepsy (generalized tonic seizures).
Count the number of Grade IV seizures and deaths in each group of mice in the experiment; Grade II, III and IV incubation period. […] Chi-square test was used for statistics of the number of cases. The mean value and standard error of the incubation period were calculated, and TTEST was used to compare the model group with other groups. P<0.05 was considered as a significant difference.

[3] = test system: PTZ-induced epilepsy in mice; experiment: Pentylenetetrazole (PTZ)-induced epilepsy in mice; type: in vivo, ICR mice; conditions: Retigabine 60 mg/kg
Description: • Animals: male ICR mice; • Medicines: Pentylenetetrazol (PTZ), Retigabine, Protein BD-3. • Experiment grouping: • Model group; • Retigabine 60 mg/kg group; • Protein BD-3, 50 mg/kg group, 200 mg/kg group;
The drug was administered once in the afternoon the day before modeling, On the day of modeling, PTZ-65 mg/kg (modeling agent) was injected intraperitoneal 1 hour after the test drug was administered intragastrically, and the positive drug can be administered once half an hour before modeling. Continue to observe for 15 minutes after injection of PTZ.
Observation index: (1)Seizure situation: the time of seizures from Grade III to Grade VI; (2)Death situation
as §1
Count the cases of seizures and deaths in each group of mice in the experiment; Grade III and IV incubation period. The incubation period of mice that have not attacked to Grade IV is recorded as the maximum of 900 seconds. Chi-square test was used for statistics of the number of cases. Calculate the mean and standard error of the incubation period. Use TTEST to compare the model group with other groups, and P<0.05 is considered as a significant difference.

[4] = test system: lipopolysaccharide (LPS) induced fever model in SD rats; experiment: Lipopolysaccharide (LPS) induced fever in SD rats; type: in vivo
Description: • Animals: 230-260 grams of male SD rats; • Drugs: lipopolysaccharide (LPS, SIGMA L-2880), aspirin (SIGMA A2093), protein BD-3; Instruments: electronic balance (SARTORIUS BP121S type), electronic clinical thermometer (CITIZEN CT-513W type). • Experiment grouping: • Normal control group; • Model group: lipopolysaccharide fever model; • Positive control group: Aspirin 300 mg/kg group; • Protein BD-3, 10 mg/kg group, 50 mg/kg group. • Method: the method of intraperitoneal injection of Lipopolysaccharide to replicate rat fever model.
(§2) Preparation of experimental animals: After the experimental animals adapt to the experimental environment (temperature 22° C.±2° C., relative humidity 50%±2%) for 1 day. Pre-adaptation to measure rectal temperature at 8:00 and 15:00, rats were fasted and water was taken freely 12 h before experiment, and let the animal to empty its feces before measuring the rectal temperature. Apply petroleum jelly to the electronic thermometer probe before each temperature measurement. Insert the rat rectum 2 cm (can be marked at 2 cm to ensure that the depth of each insertion is consistent), and record the body temperature after the reading is stable.
Intraperitoneal injection of lipopolysaccharide to replicate rat fever model: The body temperature of the rats was measured before modeling. Qualified rats with a body temperature of 36.2-37.3° C. were selected and randomly divided into groups with 8 rats in each group. After oral administration of aspirin and different doses of protein BD-3, lipopolysaccharide (20 μg/kg, 2 ml/kg) was injected intraperitoneally immediately, and the normal control group was injected intraperitoneally with an equal volume of normal saline. The body temperatures of the rats were monitored after 2 hours for a total of 8 hours.
(§3) According to the body temperature measured at each time point on the day of the experiment, calculate the mean, standard deviation and standard error of the body temperature of each group of rats. The data of each group was compared with TTEST, and P<0.05 was considered as a significant difference.

[5] = test system: acetic acid writhing in ICR mice; experiment: Acetic acid writhing in ICR mice; type: in vivo
Description: • Animals: male ICR mice; • Drugs and reagents: aspirin, physiological saline, glacial acetic acid, protein BD-3. • Experiment grouping: • Model group; • Aspirin 300 mg/kg group; • Protein BD-3, 50 mg/kg group, 200 mg/kg group.
One day after the experimental animals adapt to the environment, Aspirin 300 mg/kg, protein BD-3 50 mg/kg, 200 mg/kg were given orally one hour in advance, and the administration volume was 10 ml/kg; Then, 0.6% acetic acid solution was injected intraperitoneally, and the incubation period (seconds) and frequency of writhing in the animal was observed within 15 minutes.
Calculate the mean and standard error of the data in each group. Compared with the model group by TTEST, P<0.05 was considered as statistically different.

[6] = test system: yeast-induced fever model in SD rats; experiment: Yeast-induced fever model of SD rats; type: in vivo
Description: • Animals: 230-260 grams of male SD rats; • Medicines: yeast (OXOID LP0021), aspirin (SIGMA A2093), protein BD-3; • Instruments: electronic balance (SARTORIUS BP121S type), electronic clinical thermometer (CITIZEN CT-513W type). • Experiment grouping: • Normal control group; • Model group: yeast fever model; • Positive control group: Aspirin 300 mg/kg group; • Protein BD-3, 10 mg/kg group, 50 mg/kg group. • Method:
as §2
Subcutaneous injection of dry yeast to replicate rat fever model: The body temperature of the rats was measured before modeling. Qualified rats with a body temperature of 36.2-37.3° C. were selected and randomly divided into groups with 8 rats in each group. After oral administration of aspirin and different doses of protein BD-3, 20% yeast suspension (10 ml/kg) was injected subcutaneously immediately, and the normal control group was injected intraperitoneally with an equal volume of normal saline. The body temperatures of the rats were monitored after 2 hours for a total of 8 hours.
as §3

[7] = aspirin 300 mg/kg oral, LPS 20 μg/kg i.p., model group 37.8 ± 0.2
[8] = aspirin 300 mg/kg oral, 20% yeast s.c., model group 37.7 ± 0.1

Compound: COc1ccc2c(c1)[C@]13CCCC[C@@H]1[C@H](C2)N(C)CC3 [Dextromethorphan, dextromethorphan hydrobromide, reference compound]
- Incubation period (cough) ([1]; Dextromethorphan 15 mg/kg oral, X ± SEM, solvent control 26.9 ± 2.3): 38.4 ± 4.5 s
- Number of coughs ([1]; Dextromethorphan 15 mg/kg oral, within 2 minutes, X ± SEM, solvent control 67.1 ± 5.7): 34.0 ± 2.9
- Cough incubation period and number of coughs vs solvent control (in words) ([1]; dextromethorphan 15 mg/kg, P<0.05): significant improvement in the incubation period and the number of coughs

Compound: CN1C(=O)CN=C(c2ccccc2)c2cc(Cl)ccc21 [Diazepam, reference compound]
- mortality rate ([2]; PLO 225 mg/kg i.p., model group 0): 0
- Grade IV seizure rate ([2]; PLO 225 mg/kg i.p., model group 80%): 0** %
- Grade IV seizure incubation period ([2]; mean ± SEM, maximum recorded 1800 seconds, model group 894 ± 164): 1800 ± 0 s
- Grade II seizure incubation period ([2]; mean ± SEM, model group 86 ± 5): 109 ± 8 s
- Grade III seizure incubation period ([2]; mean ± SEM, model group 142 ± 6): 182 ± 14 s
- Cases of Grade IV ([2]; of 10 mice, PLO 225 mg/kg i.p., 30 min observation, model group 8): 0**
- Cases of deaths ([2]; of 10 mice, PLO 225 mg/kg i.p., model group 0): 0

Compound: CCOC(=O)Nc1ccc(NCc2ccc(F)cc2)cc1N [Retigabine, reference compound]
- mortality rate ([3]; PTZ 65 mg/kg i.p., model group 10%): 0%
- Grade IV seizure rate ([3]; PTZ 65 mg/kg i.p., model group 90%): 20%**
- Grade IV seizure incubation period ([3]; mean ± SEM, maximum recorded 900 seconds, model group 185 ± 84): 745 ± 103 s
- Grade III seizure incubation period ([3]; mean ± SEM, model group 63 ± 6): 83 ± 7 s
- Cases of Grade IV ([3]; of 10 mice, PTZ 65 mg/kg i.p., 15 min observation, model group 9): 2**
- Cases of deaths ([3]; of 10 mice, PTZ 65 mg/kg i.p., model group 1): 0

Compound: CC(=O)Oc1ccccc1C(=O)O [aspirin, reference compound]
- Body temperature 2 hours after modeling ([4]; aspirin 300 mg/kg oral, LPS 20 μg/kg i.p., model group 37.6 ± 0.1): 36.8 ± 0.1 °C
- Body temperature 4 hours after modeling ([4]; aspirin 300 mg/kg oral, LPS 20 μg/kg i.p., model group 37.8 ± 0.1): 36.9 ± 0.2 °C
- Body temperature 6 hours after modeling [4, 7]: 36.8 ± 0.2 °C
- Body temperature 8 hours after modeling [4, 7]: 36.9 ± 0.1 °C
- Effect on body temperature of model rats (in words) ([4]; aspirin 300 mg/kg, at 2, 4, 6 and 8 hours after modeling, P<0.05 vs model group): can effectively inhibit the increase in body temperature of model rats
- Writhing incubation period and times of writhing vs model group (in words) ([5]; Aspirin 300 mg/kg, P<0.05): can significantly delay the incubation period of writhing and reduce the times of writhing
- Writhing incubation period ([5]; aspirin 300 mg/kg oral, 0.6% acetic acid i.p., model group 204.2 ± 19.6): 290.3 ± 37.0 s
- Frequency of writhing ([5]; aspirin 300 mg/kg oral, within 15 minutes, model group 33.3 ± 2.5): 15.2 ± 2.9 times
- Body temperature 2 hours after modeling ([6]; aspirin 300 mg/kg oral, 20% yeast s.c., model group 37.5 ± 0.1): 37.0 ± 0.1 °C
- Body temperature 8 hours after modeling ([6]; aspirin 300 mg/kg oral, 20% yeast s.c., model group 37.6 ± 0.1): 37.0 ± 0.1 °C
- Body temperature 4 hours after modeling [6, 8]: 37.0 ± 0.1 °C
- Body temperature 6 hours after modeling [6, 8]: 37.0 ± 0.1 °C
- Effect on body temperature of model rats (in words) ([6]; aspirin 300 mg/kg, at 4 hours, 6 hours, and 8 hours after modeling, P<0.05 vs model group): can effectively inhibit the increase in body temperature of model rats
